Assay results reported in ChEMBL document CHEMBL2331514, “Structure-based design and synthesis of novel pseudosaccharine derivatives as antiproliferative agents and kinase inhibitors” (Eur J Med Chem, 2013).

Key:
[1] = system: CAKI-1; test: Cytotoxicity against human Caki1 cells assessed as growth inhibition at 10 uM after 48 hrs by SRB assay; type: functional; details: CAKI-1, 48 h, read-out: GI
[2] = system: MDA-MB-468; test: Cytotoxicity against human MDA-MB-468 cells assessed as growth inhibition at 10 uM after 48 hrs by SRB assay; type: functional; details: MDA-MB-468, 48 h, read-out: GI
[3] = system: HCT-15; test: Cytotoxicity against human HCT15 cells assessed as growth inhibition at 10 uM after 48 hrs by SRB assay; type: functional; details: HCT-15, 48 h, read-out: GI
[4] = system: RXF 393; test: Cytotoxicity against human RXF393 cells assessed as growth inhibition at 10 uM after 48 hrs by SRB assay; type: functional; details: RXF 393, 48 h, read-out: GI
[5] = system: MCF7; test: Cytotoxicity against human MCF7 cells assessed as growth inhibition at 10 uM after 48 hrs by SRB assay; type: functional; details: MCF7, 48 h, read-out: GI
[6] = system: A498; test: Cytotoxicity against human A498 cells assessed as growth inhibition at 10 uM after 48 hrs by SRB assay; type: functional; details: A498, 48 h, read-out: GI
[7] = system: OVCAR-3; test: Cytotoxicity against human OVCAR3 cells assessed as growth inhibition at 10 uM after 48 hrs by SRB assay; type: functional; details: OVCAR-3, 48 h, read-out: GI
[8] = system: UACC-62; test: Cytotoxicity against human UACC62 cells assessed as growth inhibition at 10 uM after 48 hrs by SRB assay; type: functional; details: UACC-62, 48 h, read-out: GI
[9] = system: SR; test: Cytotoxicity against human SR cells assessed as growth inhibition at 10 uM after 48 hrs by SRB assay; type: functional; details: read-out: GI
[10] = system: UACC-257; test: Cytotoxicity against human UACC257 cells assessed as growth inhibition at 10 uM after 48 hrs by SRB assay; type: functional; details: UACC-257, 48 h, read-out: GI
[11] = system: HL-60(TB); test: Cytotoxicity against human HL-60(TB) cells assessed as growth inhibition at 10 uM after 48 hrs by SRB assay; type: functional; details: HL-60, 48 h, read-out: GI
[12] = system: HOP-62; test: Cytotoxicity against human HOP62 cells assessed as growth inhibition at 10 uM after 48 hrs by SRB assay; type: functional; details: HOP-62, 48 h, read-out: GI
[13] = system: LOX IMVI; test: Cytotoxicity against human LOXIMVI cells assessed as growth inhibition at 10 uM after 48 hrs by SRB assay; type: functional; details: read-out: GI
[14] = system: SF-539; test: Cytotoxicity against human SF539 cells assessed as growth inhibition at 10 uM after 48 hrs by SRB assay; type: functional; details: SF-539, 48 h, read-out: GI
[15] = system: NCI-H23; test: Cytotoxicity against human NCI-H23 cells assessed as growth inhibition at 10 uM after 48 hrs by SRB assay; type: functional; details: NCI-H23, 48 h, read-out: GI
[16] = system: MOLT-4; test: Cytotoxicity against human MOLT4 cells assessed as growth inhibition at 10 uM after 48 hrs by SRB assay; type: functional; details: MOLT-4, 48 h, read-out: GI
[17] = system: DU-145; test: Cytotoxicity against human DU145 cells assessed as growth inhibition at 10 uM after 48 hrs by SRB assay; type: functional; details: DU-145, 48 h, read-out: GI
[18] = system: OVCAR-8; test: Cytotoxicity against human OVCAR8 cells assessed as growth inhibition at 10 uM after 48 hrs by SRB assay; type: functional; details: OVCAR-8, 48 h, read-out: GI
[19] = Partition coefficient, log P of the compound; type: physicochemical; details: octanol/water
[20] = system: TK-10; test: Cytotoxicity against human TK10 cells assessed as growth inhibition at 10 uM after 48 hrs by SRB assay; type: functional; details: TK-10, 48 h, read-out: GI
[21] = system: NCI-H322M; test: Cytotoxicity against human NCI-H322M cells assessed as growth inhibition at 10 uM after 48 hrs by SRB assay; type: functional; details: read-out: GI
[22] = system: SK-MEL-28; test: Cytotoxicity against human SK-MEL-28 cells assessed as growth inhibition at 10 uM after 48 hrs by SRB assay; type: functional; details: SK-MEL-28, 48 h, read-out: GI
[23] = system: M14; test: Cytotoxicity against human M14 cells assessed as growth inhibition at 10 uM after 48 hrs by SRB assay; type: functional; details: M14, 48 h, read-out: GI
[24] = system: SF-268; test: Cytotoxicity against human SF268 cells assessed as growth inhibition at 10 uM after 48 hrs by SRB assay; type: functional; details: SF-268, 48 h, read-out: GI
[25] = system: SK-MEL-2; test: Cytotoxicity against human SK-MEL-2 cells assessed as growth inhibition at 10 uM after 48 hrs by SRB assay; type: functional; details: SK-MEL-2, 48 h, read-out: GI
[26] = system: NCI-H522; test: Cytotoxicity against human NCI-H522 cells assessed as growth inhibition at 10 uM after 48 hrs by SRB assay; type: functional; details: NCI-H522, 48 h, read-out: GI
[27] = system: COLO 205; test: Cytotoxicity against human COLO205 cells assessed as growth inhibition at 10 uM after 48 hrs by SRB assay; type: functional; details: COLO 205, 48 h, read-out: GI
[28] = system: U-251; test: Cytotoxicity against human U251 cells assessed as growth inhibition at 10 uM after 48 hrs by SRB assay; type: functional; details: U-251, 48 h, read-out: GI
[29] = system: BT-549; test: Cytotoxicity against human BT549 cells assessed as growth inhibition at 10 uM after 48 hrs by SRB assay; type: functional; details: BT-549, 48 h, read-out: GI
[30] = system: 786-0; test: Cytotoxicity against human 786-0 cells assessed as growth inhibition at 10 uM after 48 hrs by SRB assay; type: functional; details: 786-0, 48 h, read-out: GI
[31] = system: Hs-578T; test: Cytotoxicity against human Hs578T cells assessed as growth inhibition at 10 uM after 48 hrs by SRB assay; type: functional; details: read-out: GI
[32] = system: CCRF-CEM; test: Cytotoxicity against human CCRF-CEM cells assessed as growth inhibition at 10 uM after 48 hrs by SRB assay; type: functional; details: read-out: GI
[33] = system: SF-295; test: Cytotoxicity against human SF295 cells assessed as growth inhibition at 10 uM after 48 hrs by SRB assay; type: functional; details: SF-295, 48 h, read-out: GI
[34] = system: UO-31; test: Cytotoxicity against human UO31 cells assessed as growth inhibition at 10 uM after 48 hrs by SRB assay; type: functional; details: UO-31, 48 h, read-out: GI
[35] = system: Malme-3M; test: Cytotoxicity against human MALME-3M cells assessed as growth inhibition at 10 uM after 48 hrs by SRB assay; type: functional; details: read-out: GI
[36] = system: PC-3; test: Cytotoxicity against human PC3 cells assessed as growth inhibition at 10 uM after 48 hrs by SRB assay; type: functional; details: PC-3, 48 h, read-out: GI
[37] = system: NCI-H460; test: Cytotoxicity against human NCI-H460 cells assessed as growth inhibition at 10 uM after 48 hrs by SRB assay; type: functional; details: NCI-H460, 48 h, read-out: GI
[38] = system: SNB-19; test: Cytotoxicity against human SNB19 cells assessed as growth inhibition at 10 uM after 48 hrs by SRB assay; type: functional; details: SNB-19, 48 h, read-out: GI

SMILES	inhibition of growth at 10 µM [1]	inhibition of growth at 10 µM [2]	inhibition of growth at 10 µM [3]	inhibition of growth at 10 µM [4]	inhibition of growth at 10 µM [5]	inhibition of growth at 10 µM [6]	inhibition of growth at 10 µM [7]	inhibition of growth at 10 µM [8]	inhibition of growth at 10 µM [9]	inhibition of growth at 10 µM [10]	inhibition of growth at 10 µM [11]	inhibition of growth at 10 µM [12]	inhibition of growth at 10 µM [13]	inhibition of growth at 10 µM [14]	inhibition of growth at 10 µM [15]	inhibition of growth at 10 µM [16]	inhibition of growth at 10 µM [17]	inhibition of growth at 10 µM [18]	logP [19]	inhibition of growth at 10 µM [20]	other results
O=C(Nc1ccccc1)Nc1ccc(NC2=NS(=O)(=O)c3ccccc32)cc1	2%	-11%	-7%	-6%	10%	16%	-11%	-7%	3%	-1%	5%	-11%	2%	5%	3%	4%	-1%	-5%	2.23	-12%	inhibition of growth at 10 µM [21]: -8%; inhibition of growth at 10 µM [22]: -10%; inhibition of growth at 10 µM [23]: -3%; inhibition of growth at 10 µM [24]: -1%; inhibition of growth at 10 µM [25]: -14%; inhibition of growth at 10 µM [26]: -6%; inhibition of growth at 10 µM [27]: -19%; inhibition of growth at 10 µM [28]: 1%; inhibition of growth at 10 µM [29]: 3%; inhibition of growth at 10 µM [30]: 3%; inhibition of growth at 10 µM [31]: -9%; inhibition of growth at 10 µM [32]: 5%; inhibition of growth at 10 µM [33]: 1%; inhibition of growth at 10 µM [34]: 7%; inhibition of growth at 10 µM [35]: -1%; inhibition of growth at 10 µM [36]: -3%; inhibition of growth at 10 µM [37]: -3%; inhibition of growth at 10 µM [38]: -5%
O=C(Nc1ccc(Cl)cc1)Nc1ccc2c(c1)C(Nc1ccc(Cl)cc1Cl)=NS2(=O)=O	83%	74%	76%	15%	79%	68%	98%	71%	60%	38%	74%	33%	72%	42%	92%	73%	71%	65%	4.24	57%	inhibition of growth at 10 µM [21]: 27%; inhibition of growth at 10 µM [22]: 42%; inhibition of growth at 10 µM [23]: 63%; inhibition of growth at 10 µM [24]: 40%; inhibition of growth at 10 µM [25]: 50%; inhibition of growth at 10 µM [26]: 77%; inhibition of growth at 10 µM [27]: 77%; inhibition of growth at 10 µM [28]: 73%; inhibition of growth at 10 µM [29]: 49%; inhibition of growth at 10 µM [30]: 73%; inhibition of growth at 10 µM [31]: 9%; inhibition of growth at 10 µM [32]: 82%; inhibition of growth at 10 µM [33]: 96%; inhibition of growth at 10 µM [34]: 70%; inhibition of growth at 10 µM [35]: 58%; inhibition of growth at 10 µM [36]: 82%; inhibition of growth at 10 µM [37]: 87%; inhibition of growth at 10 µM [38]: 64%
O=C(Nc1ccc(NC2=NS(=O)(=O)c3ccccc32)cc1)Nc1cccc(Br)c1	5%	60%	-6%	35%	44%	21%	22%	19%	27%	9%	1%	24%	23%	36%	14%	37%	19%	17%	2.24	-2%	inhibition of growth at 10 µM [21]: 29%; inhibition of growth at 10 µM [22]: 5%; inhibition of growth at 10 µM [23]: 22%; inhibition of growth at 10 µM [24]: 23%; inhibition of growth at 10 µM [25]: 1%; inhibition of growth at 10 µM [26]: 14%; inhibition of growth at 10 µM [27]: -11%; inhibition of growth at 10 µM [28]: 39%; inhibition of growth at 10 µM [29]: 23%; inhibition of growth at 10 µM [30]: 27%; inhibition of growth at 10 µM [31]: 35%; inhibition of growth at 10 µM [32]: 39%; inhibition of growth at 10 µM [33]: 20%; inhibition of growth at 10 µM [34]: 13%; inhibition of growth at 10 µM [35]: 17%; inhibition of growth at 10 µM [36]: 16%; inhibition of growth at 10 µM [37]: 1%; inhibition of growth at 10 µM [38]: 19%
